Patent US20100113334A1, “METHODS FOR REDUCING OR PREVENTING TRANSMISSION OF NOSOCOMIAL PATHOGENS IN A HEALTH CARE FACILITY” (priority 2003, published 2010)
Entries after “also recorded” stand apart in the source; their conditions may differ.

Columns and labels:
[1] = tested on: clinical isolate VanA strain of E. faecium (VRE); experiment: VRE suppression in a mouse model (Example 1); type: in vivo, mice
Text: Mice were colonized with a clinical isolate VanA strain of E. faecium (VRE) isolated from a septicemic patient. A single inoculation of 5×10^8 cfu VRE by oral gavage (Day 0) was followed by treatment with vancomycin in the drinking water to maintain colonization. On day 22, each group received the same vancomycin-containing drinking water. […] The control group consisted of five mice, while the ramoplanin group consisted of four mice.

[2] = tested on: indigenous stool microflora; experiment: DGGE of PCR-amplified bacterial ribosomal RNA genes from stool (Example 3); type: in vivo, mice; settings: oral ramoplanin 100 μg/mL in drinking water
[3] = Oral administration to healthy male volunteers: absorption and excretion (Example 7, 7.1); type: in vivo, human
Protocol: Both bioassay and HPLC-based assays to assess the absorption, distribution, metabolism, and excretion were utilized in these studies.
(§1) The predetermined dose was reconstituted in 5 mL water per vial, mixed with 50 mL of sweetened, aromatized solution, and immediately administered orally to the subjects.

[4] = tested on: Gram-negative bacteria (enteric bacteria and Bacteroides spp.); experiment: Activity on stool microflora of healthy volunteers (Example 7.1); type: in vivo, human; settings: 10 days BID
Protocol: as §1
(§2) Faecal microbial concentrations (organisms per gram of faecal matter) were determined at the following timepoints: day-4 (pre-treatment), days 4 and 10 (treatment), and days […] and 24 (follow-up). Tolerability and absorption were also investigated.

[5] = tested on: Gram-positive bacteria (staphylococci, streptococci, enterococci); experiment: as above; type: in vivo, human
Protocol: as §1, §2

yeast = experiment: as above; type: in vivo, human; settings: 10 days BID
Protocol: as §1, §2

[6] = In vitro interaction with human gastro-intestinal contents
Text: The in vitro interaction of ramoplanin with human gastro-intestinal contents was studied.

VRE = experiment: Multiple dose study in asymptomatic carriers of gastro-intestinal VRE (Example 7.2); type: in vivo, human; settings: for patients with no detectable VRE: p<0.01; for patients who remained VRE free: Day 14 (seven days after cessation)
Protocol: Patients were assessed by rectal swab on Days 7, 14, and 21 to determine the presence or absence of VRE. […] All VRE isolates were tested for susceptibility to ramoplanin.

S. aureus (MSSA) = settings: 140 strains; cited from earlier work
S. aureus (MRSA) = settings: 100 strains; cited from earlier work
S. pneumoniae = settings: 20 strains; cited from earlier work
Bacillus spp. = settings: 10 strains; cited from earlier work
[7] = Day 22, prior to ramoplanin therapy
[8] = Day 36, 7 days after completion of ramoplanin therapy
[9] = single oral doses up to 1000 mg, multiple 200, 400 or 800 mg BID 10 days, bioassay and HPLC

Substance: Ramoplanin
- % Mice with VRE [1, 7]: 100%
- Enterococci: VRE [1, 7]: 9.7 log 10 cfu/g faeces
- Enterococci: VRE ([1]; Day 29, completion of ramoplanin therapy): <3.1 log 10 cfu/g faeces
- % Mice with VRE ([1]; Day 29, completion of ramoplanin therapy (15 mg/kg/day in drinking water, with 25 mg/kg/day vancomycin)): 0%
- % Mice with VRE [1, 8]: 100%
- Enterococci: VRE [1, 8]: 8.7 log 10 cfu/g faeces
- VRE concentration per gram of faeces ([1]; after one week of treatment, all animals): < 3.1 log units
- stool DGGE patterns, mean similarity indices in comparison to the pre-treatment patterns [2]: 72%
- absorption from the human gastro-intestinal tract ([3]; 200, 400 or 800 mg twice a day, ten days): very little, if any, is absorbed; also recorded: No absorption
- faecal concentration, average ([3]; Day 3, 200 mg group): 827 µg/g
- faecal concentration, average ([3]; Day 3, 400 mg group): 1742 µg/g
- faecal concentration, average ([3]; Day 3, 800 mg group): 1901 µg/g
- faecal concentration, average ([3]; Day 10, 200 mg group): 949 µg/g
- faecal concentration, average ([3]; Day 10, 400 mg group): 1417 µg/g
- faecal concentration, average ([3]; Day 10, 800 mg group): 2647 µg/g
- ramoplanin in urine ([3]; day 1 or 5 and pooled urine up to 72-96 after the last dose): no ramoplanin was detected
- ramoplanin in serum ([3]; days 1, 5, 10, 0.5-12 hours after the morning dose, 200, 400 or 800 mg twice a day): not detected
- faecal concentrations post-treatment ([3]; four days post-treatment): remained detectable in some subjects
- ramoplanin in serum/plasma [3, 9]: not detected
- ramoplanin in urine [3, 9]: not detected
- cumulative recovery in faeces ([3]; up to Day 4 post-treatment): 25 % of the administered dose
- effect on faecal Gram-negative bacteria [4]: no effect
- faecal concentrations of staphylococci, streptococci, and enterococci ([5]; by day 10, all subjects): below the level of detection
- effect on faecal Gram-positive bacteria ([5]; first measurement on day 4): marked effect
- effect on faecal yeast (yeast): no effect
- binding to solid components of faeces [6]: bind reversibly
- microbiological activity in faeces [6]: microbiologically active in faeces
- patients with no detectable VRE (VRE; Day 7, 100 mg BID for seven days, 17 of 21 patients): 81.0%
- patients with no detectable VRE (VRE; Day 7, 400 mg BID for seven days, 18 of 20 patients): 90.0%
- patients who remained VRE free (VRE; 100 mg BID, 6 of 21 patients): 28.6%
- patients who remained VRE free (VRE; 400 mg BID, 7 of 17 patients): 41.2%
- number of VRE-free patients (VRE; Day 21): comparable among all treatment groups
- Ramoplanin MIC90 (S. aureus (MSSA)): 0.5 µg/mL
- Ramoplanin MIC90 (S. aureus (MRSA)): 0.25 µg/mL
- Ramoplanin MIC90 (S. pneumoniae): <0.03 µg/mL
- Ramoplanin MIC90 (Bacillus spp.): 0.25 µg/mL
